Experimental data as given in US9096583B2, “Substituted 1,2,5-oxadiazole compounds and their use as herbicides II” (BASF SE, priority 2011, dated 2015).

What was measured:
[1] = tested on: ABUTH; test: greenhouse post-emergence herbicidal test, ABUTH; type: in vivo, Abutilon theophrasti; conditions: post-emergence method, application rate 1 kg/ha, scale from 0 to 100
From the text: (§1) The seeds of the test plants were sown separately for each species. For the post-emergence treatment, the test plants were first grown to a height of 3 to 15 cm, depending on the plant habit, and only then treated with the active ingredients which had been suspended or emulsified in water. For this purpose, the test plants were either sown directly and grown in the same containers, or they were first grown separately as seedlings and transplanted into the test containers a few days prior to treatment. Depending on the species, the plants were kept at 10-25° C. or 20-35° C. The test period extended over 2 to 4 weeks. During this time, the plants were tended, and their response to the individual treatments was evaluated. Evaluation was carried out using a scale from 0 to 100. 100 means no emergence of the plants, or complete destruction of at least the aerial moieties, and 0 means no damage, or normal course of growth. A good herbicidal activity is given at values of at least 70 and a very good herbicidal activity is given at values of at least 85. [table]

[2] = tested on: ALOMY; test: greenhouse post-emergence herbicidal test, ALOMY; type: in vivo, Alopecurus myosuroides; conditions: post-emergence method, application rate 0.25 kg/ha, scale from 0 to 100
From the text: as §1

SMILES | herbicidal activity against ABUTH [1] | herbicidal activity against ALOMY [2]
Cc1nonc1NC(=O)c1ccc(Cl)c2ncccc12 [I′.A-113] | good herbicidal activity (A good herbicidal activity is given at values of at least 70) | –
COc1nonc1NC(=O)c1ccc2c(c1Cl)S(=O)(=O)CCC2(C)C [I″.A-8] | – | very good herbicidal activity (a very good herbicidal activity is given at values of at least 85)
